Publication PMC10447463, “Data-mining unveils structure–property–activity correlation of viral infectivity enhancing self-assembling peptides” (Nature Communications, 2023)
Read-outs that look alike come from different tables or passages of the source.

How the values were obtained:
[1] = Turbidity, derived count rate of scattered light; assay type: physicochemical; conditions: for Log Count Rate: log of derived count rate
How it was run: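 Samples: 1 mg/mL in PBS pH 7.4 (from DMSO), 1 d at RT, then diluted in 1 mM KCl immediately before measurement. Triplicates, two independent runs averaged.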

[2] = assay type: physicochemical; set-up: key to Fibril / Fibril Formation / TEM 2cat / Fibril: 1 = fibrils present; 0 non-fibrillar structures
[3] = tested on: HIV-1 infection of TZM-bl cells; assay: HIV-1 infectivity enhancement assay, β-galactosidase luminescence; assay type: cell-based; conditions: for Log10 Inf. rel. to EF-C: log10 of HIV-1 infection of TZM-bl cells relative to EF-C, Fig S15 source data; for Log10 Inf. rel. to EF-C / Log Infectivity: asymmetric std dev errors; for Log Infectivity: Log10 infection relative to EF-C, TZM-bl cells; for Log10 Infection Rel EF-C: HIV-1 infection of TZM-bl cells
[4] = category 1 or 0 derived from the count rate, key not given
[5] = category 1 or 0 from count rate, key not given
[6] = derived count rate of scattered light, mean, std deviation in next column
[7] = derived count rate of scattered light, mean, std deviation in separate column
[8] = Feb2021, 1.3 µM value relative to virus only (0 µM)
[9] = Feb2021, Log10 of infectivity relative to EF-C
[10] = Feb2021, infectivity enhancement relative to EF-C
[11] = Feb2021, n-fold enhancement relative to EF-C
[12] = Feb2021, n-fold infectivity relative to EF-C
[13] = Feb2021, unrounded values of the 1.3 µM column
[14] = Feb2021 run, infectivity n-fold relative to virus alone
[15] = Feb2021 run, log10 of infectivity relative to EF-C
[16] = Feb2021 run, n-fold infectivity relative to EF-C
[17] = infectivity class (low / medium / high) of the peptide in the sequence-pattern analysis, Fig. S22-A4, class limits not given
[18] = infectivity class (low / medium / high) of each library peptide, main list in c1-c6, same classes repeated in sub-lists of sequences containing the hydrophobicity/charge patterns P+,H0,P+,H0,P0,H0,P0, P+,H0,P0,H0,P0,H0,P0, P+,H0,P0,H0
[19] = derived count rate of scattered light
[20] = Feb2021, figures match the 1.3 µM column
[21] = Feb2021, infectivity relative to virus only

Substance	Zeta Count Rate Category ([1]; category 1/0, no key printed)	Zeta Count Rate Category [1, 5]	Zeta Count Rate / kcps [1, 6] [kcps]	Zeta Count Rate / kcps [1, 7] [kcps]	TEM: 1= fibrils, 0= aggregates (micelle), 0.5 = aggregates and fibrils, -1 = nothing obersved, STD prep [2]	n-fold to virus (Feb2021) [3, 8]	Log10 of Rel to EFC (Feb2021) [3, 9]	Rel-to EFC (Feb-2021) [3, 11]	Rel-to EFC (Feb-2021) [3, 12]	Absolute Infectivity / RLU /s (Feb2021) [3, 13] [RLU /s]	n-fold to virus (Feb2021) [3, 14]	Log10 of Rel to EFC (Feb2021) [3, 15]	Rel-to EFC (Feb-2021) [3, 16]	Log10 Inf. rel. to EF-C [3]	infectivity [3, 18]	other results
CKIKIQI [MG3b]	1	1	2432.9	2432.9	1	42.81	0.008101	1.019	1.019	19406.66667	42.81	0.008101	1.019	0.0081	–	Log Count Rate ([1]; Fig S8 panels A, C, asymmetric log errors): 3.386; Log Count Rate ([1]; Fig S8 panels B, D): 3.386; Count Rate ([1]; Fig S8 panels B, D, turbidity, derived count rate of scattered light): 2432.9; Zeta Count Rate Category [1, 4]: 1; Zeta Count Rate / kcps ([1]; derived count rate from zeta measurement, mean): 2432.9 kcps; Zeta Count Rate Category ([1]; key not given): 1; TEM: 1= fibrils, 0= aggregates (micelle), 0.5 = aggregates and fibrils, -1 = nothing obersved, STD prep ([2]; FigS26): 1; Rel-to EFC (Feb-2021) [3, 10]: 1.019; Log10 of Rel to EFC (Feb2021) ([3]; Feb2021, log10 of infectivity relative to EF-C): 0.008101; Rel-to EFC ([3]; Fig S8 panels B, D, infectivity enhancement relative to EF-C): 1.019; n-fold to virus ([3]; Fig S8 panels B, D, infectivity n-fold relative to virus alone): 42.81; infectivity [3, 17]: high; Rel-to EFC (Feb-2021) ([3]; infectivity enhancement relative to EF-C (=1), Feb2021 run): 1.019; n-fold to virus (Feb2021) ([3]; infectivity n-fold relative to virus only, Feb2021 run): 42.81; Log10 of Rel to EFC (Feb2021) ([3]; log10 of infectivity relative to EF-C, Feb2021 run): 0.008101
CKIKIQINMWQ [MG1]	1	1	1881	1881	1	29.41	-0.155	0.6998	0.6998	18623.33333	29.41	-0.155	0.6998	-0.155	medium	–
KFKFQF [JJA6]	1	1	183.4	183.4	0.5	2.575	-1.213	0.06128	0.06128	686.7	2.575	-1.213	0.06128	-1.213	low	–
CKFKQFFNMWQ [CK13]	–	1	8210	8210	1	–	-0.2148	0.6098	0.6098	–	25.62	-0.2148	0.6098	-0.2148	medium	Zeta Count Rate Category ([1]; category 1 / 0, no key given): 1; Zeta Count Rate / kcps [1, 19]: 8210 kcps; Absolute Infectivity / RLU /s (Feb2021) [3, 20]: 23486.66667 RLU /s; n-fold to virus (Feb2021) [3, 21]: 25.62
QCKAKAQANMWQ [CK22]	1	1	427.5	427.5	0.5	3.018	-1.144	0.07183	0.07183	2767	3.018	-1.144	0.07183	-1.144	low	–
KLKLQLL [TG4 / (KM2)]	–	–	72.67	–	1	–	-2.156	–	0.006983	–	–	–	–	-2.156	low	Zeta Count Rate Category ([1]; category 1 / 0, no key given): 0; Zeta Count Rate Category [1, 4]: 0; Zeta Count Rate / kcps [1, 19]: 72.67 kcps; Absolute Infectivity / RLU /s (Feb2021) [3, 20]: 163.3 RLU /s; Rel-to EFC (Feb-2021) [3, 10]: 0.006983; n-fold to virus (Feb2021) [3, 21]: 0.2934; infectivity [3, 17]: low
RGDCKFKFQF [TM64/ CN15]	–	1	1338	–	1	–	-0.8186	0.1519	0.1519	–	–	–	–	-0.8186	medium	Zeta Count Rate Category ([1]; category 1 / 0, no key given): 1; Zeta Count Rate / kcps [1, 19]: 1338 kcps; Absolute Infectivity / RLU /s (Feb2021) [3, 20]: 4637 RLU /s; n-fold to virus (Feb2021) [3, 21]: 6.381
RGDKIKIQI [MG14]	–	1	298.1	298.1	1	–	-1.805	0.01566	–	–	0.6579	-1.805	0.01566	-1.805	low	–
KIKIQI [JJA4]	1	1	108.3	108.3	0.5	2.845	-1.169	0.06771	0.06771	550	2.845	-1.169	0.06771	-1.169	low	–
KIKIQINM [JGB2]	1	1	262.1	262.1	1	15.24	-0.4404	0.3627	0.3627	2947	15.24	-0.4404	0.3627	-0.4404	medium	–
CKIKIQINMWQ	–	–	–	–	–	–	–	–	–	–	–	–	–	–	–	Log10 Count Rate ([1]; Log10 of derived count rate of scattered light (turbidity)): 3.274; Count Rate / kcps ([1]; derived count rate of scattered light at 633 nm, 173°, from zeta-potential measurement, 0.1 mg/mL in 1 mM KCl after 1 d at 1 mg/mL in PBS, turbidity / microscopic aggregation, mean of triplicate): 1881 kcps; Log10 Count Rate ([1]; log10 of derived count rate of scattered light (turbidity)): 3.274; Log10 Count Rate ([1]; turbidity, Log10 of derived count rate of scattered light, Figure 3A source data): 3.274; TEM 2cat ([2]; Fig S10 panel D, fibril category by TEM): 1; Fibril ([2]; Fig S10 panel E): 1; Fibril / Fibril Formation ([2]; TEM, 1 mg/mL, uranyl acetate stain, qualitative): 1; Fibril ([2]; TEM, 1 = fibrils present, 0 = non-fibrillar): 1; Fibril ([2]; TEM, 1 = fibrils present, 0 = non-fibrillar structures): 1; TEM 2cat ([2]; category: fibrils present or non-fibrillar): 1; Rel-EFC ([3]; 1.3 µM peptide, infection relative to EF-C (QCKIKQIINMWQ = 1)): 0,7; Log10 Infection Rel EFC ([3]; 1.3 µM peptide, log10 of infection relative to EF-C): -0,16; Log Infectivity ([3]; Fig. S7 panel A (plotted against β-sheet content)): -0.155; Log Infectivity ([3]; Fig. S7 panel B (plotted against CR), rounded to two decimals): -0.16; Log10 Infection Rel EF-C ([3]; Log10 of infection rate relative to EF-C, Figure 3A source data): -0.16; Log10 Infection Rel EF-C ([3]; infection rate relative to EF-C, log10, data of Figure 2D): -0.155; Log10 Infection Rel EF-C ([3]; infection rate relative to EF-C, log10, source data of Figure 2C): -0.155; Log10 of Rel to EFC (Feb2021) ([3]; Log10 of infection relative to EF-C, all peptides of FigS16): -0.16
